Reference: patent publication US10399974B2, “N2-phenyl-pyrido[3,4-D]pyrimidine-2, 8-diamine derivatives and their use as Mps1 inhibitors” (Cancer Research Technology Limited, priority 2014, dated 2019)

Molecular target: full length MPS1 (Homo sapiens (Human), UniProt P33981)
Experiment: Measurement of Inhibition of MPS1 Kinase
Type: biochemical
Settings: full length MPS1 12.5 nM or 3 nM, H236 peptide 5 μM, ATP 10 μM, 60 min at room temperature, Caliper EZ reader II; read-out: MPS1 IC50
Method: Measurement of Inhibition of MPS1 Kinase
(5 μM), ATP (10 μM), either DMSO (1% v/v) or the test compound (in the range 0.25 nM-100 μM in 1% DMSO) and assay buffer (50 mM HEPES (pH 7.0), 0.02% NaN3, 0.01% BSA, 0.1 mM Orthovandate, […], 1 μM DTT, Roche protease inhibitor). The reaction was carried out for 60 min at room temperature and stopped by the addition of buffer (10 μl) containing 20 mM EDTA, 0.05% (v/v) Brij-35, in 0.1M HEPES-buffered saline (Free acid, Sigma, UK). The plate was read on a Caliper EZ reader II (Caliper Life Sciences).
The reader provides a Software package (‘Reviewer’) which converts the peak heights into % conversion by measuring both product and substrate peak and also allows selection of control well which represent 0% and 100% inhibition, respectively. The % inhibition of the compounds is calculated relative to the means of selected control wells. IC50s are determined by testing the compounds at a range of concentrations from 0.25 nM-100 μM. The % inhibitions at each concentration are then fitted to a 4 parameter logistic fit: y=(a+((b−a)/(1+((c/x^d)))) where a=asym min, b=asym max, c=IC50 and d=hill coefficient

Chain of full length MPS1 (P33981 whole entry): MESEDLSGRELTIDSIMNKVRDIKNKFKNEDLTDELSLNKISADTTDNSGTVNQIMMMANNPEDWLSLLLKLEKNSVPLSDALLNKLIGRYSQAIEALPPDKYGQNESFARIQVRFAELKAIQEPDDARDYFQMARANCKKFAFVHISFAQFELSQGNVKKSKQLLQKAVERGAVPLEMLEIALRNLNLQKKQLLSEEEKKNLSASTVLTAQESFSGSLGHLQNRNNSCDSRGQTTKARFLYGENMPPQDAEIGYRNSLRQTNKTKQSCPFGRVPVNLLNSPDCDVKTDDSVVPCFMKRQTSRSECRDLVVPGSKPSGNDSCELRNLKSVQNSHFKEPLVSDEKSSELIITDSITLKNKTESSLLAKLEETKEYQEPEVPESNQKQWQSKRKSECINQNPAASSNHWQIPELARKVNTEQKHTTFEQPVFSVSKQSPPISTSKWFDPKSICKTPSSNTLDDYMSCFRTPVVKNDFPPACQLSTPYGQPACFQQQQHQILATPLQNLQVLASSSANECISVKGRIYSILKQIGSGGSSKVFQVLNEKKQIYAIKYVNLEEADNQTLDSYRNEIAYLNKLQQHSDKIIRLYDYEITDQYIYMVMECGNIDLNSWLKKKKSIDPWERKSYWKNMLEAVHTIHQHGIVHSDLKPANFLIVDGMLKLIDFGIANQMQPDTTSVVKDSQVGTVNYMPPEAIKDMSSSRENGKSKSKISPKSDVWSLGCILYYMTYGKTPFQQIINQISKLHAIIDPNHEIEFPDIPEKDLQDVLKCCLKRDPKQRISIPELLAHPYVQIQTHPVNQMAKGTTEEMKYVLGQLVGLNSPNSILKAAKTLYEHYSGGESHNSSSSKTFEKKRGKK

| SMILES | IC50 [nM] |
| --- | --- |
| CCOc1cc(-c2nncn2C)ccc1Nc1ncc2cc(C)nc(NC3CN(C)C3)c2n1 [Example 58, N2-(2-ethoxy-4-(4-methyl-4H-1,2,4-triazol-3-yl)phenyl)-6-methyl-N8-(1-methylazetidin-3-yl)pyrido[3,4-d]pyrimidine-2,8-diamine] | 518 |
| CCOc1cc(-c2nncn2C)ccc1Nc1ncc2cc(C)nc(NCC3(OC)CCC3)c2n1 [Example 59, N2-(2-ethoxy-4-(4-methyl-4H-1,2,4-triazol-3-yl)phenyl)-N8-((1-methoxycyclobutyl)methyl)-6-methylpyrido[3,4-d]pyrimidine-2,8-diamine] | 4 |
| CCOc1cc(-c2nncn2C)ccc1Nc1ncc2cc(C)nc(N3CC(CC)(OC)C3)c2n1 [Example 60, N-(2-ethoxy-4-(4-methyl-4H-1,2,4-triazol-3-yl)phenyl)-8-(3-ethyl-3-methoxyazetidin-1-yl)-6-methylpyrido[3,4-d]pyrimidin-2-amine] | 3 |
| CCOc1cc(-c2nncn2C)ccc1Nc1ncc2cc(C)nc(N3CC(C)(OCC)C3)c2n1 [Example 61, 8-(3-ethoxy-3-methylazetidin-1-yl)-N-(2-ethoxy-4-(4-methyl-4H-1,2,4-triazol-3-yl)phenyl)-6-methylpyrido[3,4-d]pyrimidin-2-amine] | 4 |
| Cc1cc2cnc(Nc3ccc(-c4nncn4C)cc3OC(F)F)nc2c(N2CC(C)(C)C2)n1 [Example 62, N-(2-(difluoromethoxy)-4-(4-methyl-4H-1,2,4-triazol-3-yl)phenyl)-8-(3,3-dimethylazetidin-1-yl)-6-methylpyrido[3,4-d]pyrimidin-2-amine] | 16 |
